Experimental findings from US8148391B2 (Cephalon, Inc., priority 2006, dated 2012) are described below.

T1 sequence (Q9UM73 19-1620): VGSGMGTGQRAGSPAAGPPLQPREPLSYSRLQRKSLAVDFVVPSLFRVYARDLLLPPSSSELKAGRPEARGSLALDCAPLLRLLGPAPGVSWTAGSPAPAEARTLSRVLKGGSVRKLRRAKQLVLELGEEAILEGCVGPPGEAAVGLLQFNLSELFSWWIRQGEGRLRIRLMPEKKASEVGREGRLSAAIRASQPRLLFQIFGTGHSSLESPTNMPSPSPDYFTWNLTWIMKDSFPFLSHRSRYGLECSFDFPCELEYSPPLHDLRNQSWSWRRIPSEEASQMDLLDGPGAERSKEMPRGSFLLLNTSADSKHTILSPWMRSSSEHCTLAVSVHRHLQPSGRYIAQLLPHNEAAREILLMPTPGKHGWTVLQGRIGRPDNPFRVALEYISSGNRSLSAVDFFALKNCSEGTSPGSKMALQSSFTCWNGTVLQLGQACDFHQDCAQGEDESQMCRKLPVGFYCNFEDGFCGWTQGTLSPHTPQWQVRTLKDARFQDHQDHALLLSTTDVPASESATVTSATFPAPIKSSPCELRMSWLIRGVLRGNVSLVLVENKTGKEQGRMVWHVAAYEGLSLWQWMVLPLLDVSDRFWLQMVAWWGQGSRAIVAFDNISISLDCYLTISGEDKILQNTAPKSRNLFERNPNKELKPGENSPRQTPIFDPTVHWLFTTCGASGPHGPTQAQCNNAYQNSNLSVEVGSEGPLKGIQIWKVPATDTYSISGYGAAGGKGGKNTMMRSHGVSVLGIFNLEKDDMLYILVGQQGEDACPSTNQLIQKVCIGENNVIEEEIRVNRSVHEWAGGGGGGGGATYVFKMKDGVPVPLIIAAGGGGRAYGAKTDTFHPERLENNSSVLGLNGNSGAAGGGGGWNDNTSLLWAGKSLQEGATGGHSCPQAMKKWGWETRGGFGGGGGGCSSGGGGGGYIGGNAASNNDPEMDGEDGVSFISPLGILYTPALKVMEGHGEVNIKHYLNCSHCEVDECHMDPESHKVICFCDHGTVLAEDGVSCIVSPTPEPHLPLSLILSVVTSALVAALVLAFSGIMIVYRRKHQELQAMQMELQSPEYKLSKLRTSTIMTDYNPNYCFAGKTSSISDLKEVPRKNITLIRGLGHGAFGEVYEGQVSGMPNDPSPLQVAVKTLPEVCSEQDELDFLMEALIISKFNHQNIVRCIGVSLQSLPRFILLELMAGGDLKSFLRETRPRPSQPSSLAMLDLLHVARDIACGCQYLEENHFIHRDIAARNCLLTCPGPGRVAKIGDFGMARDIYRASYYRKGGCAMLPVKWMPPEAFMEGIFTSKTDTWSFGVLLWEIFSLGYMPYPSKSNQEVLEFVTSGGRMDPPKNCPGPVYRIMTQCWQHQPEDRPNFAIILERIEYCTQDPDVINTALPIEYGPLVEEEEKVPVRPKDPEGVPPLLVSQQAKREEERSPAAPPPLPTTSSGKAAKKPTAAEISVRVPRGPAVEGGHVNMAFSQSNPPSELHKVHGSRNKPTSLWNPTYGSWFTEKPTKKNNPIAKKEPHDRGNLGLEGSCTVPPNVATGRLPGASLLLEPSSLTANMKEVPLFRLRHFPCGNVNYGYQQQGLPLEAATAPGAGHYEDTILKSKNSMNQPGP

One assay has as its target T1, baculovirus-expressed ALK (Homo sapiens, UniProt Q9UM73).
T1 construct: host or cells: baculovirus expression system
Put plainly: ALK Kinase Assay (ELISA-type, time-resolved fluorescence). In kind it is biochemical. Particulars: 1 μM ATP (Km level), 30 ng/ml ALK, 37° C., 15 minutes; read-out: ALK Activity (ALK kinase inhibition, IC50 class). The method, then: Briefly, each 96-well plate was coated with 100 μL/well of 10 μg/mL substrate (phospholipase C-γ) in Tris-buffered saline (TBS). […] The reaction was initiated by adding enzyme (30 ng/ml ALK) and was allowed to proceed at 37° C. for 15 minutes. Detection of the phosphorylated product was performed by adding 100 μl/well of Eu-N1 labeled PT66 antibody (Perkin Elmer # AD0041).
Data analysis was performed using ActivityBase (IDBS, Guilford, UK). IC50 values were calculated by plotting percent inhibition versus log10 of the concentration of compound and fitting to the nonlinear regression sigmoidal dose-response (variable slope) equation in XLFit (IDBS, Guilford, UK).
(An ELISA detects its analyte on a solid surface through an enzyme-linked reagent.)
In the case of `CCCNC(=O)c1ccccc1Nc1nc(Nc2ccc3c(c2)CCCC(=O)N3C)ncc1Cl` [Example 1025, 2-[5-Chloro-2-(1-methyl-2-oxo-2,3,4,5-tetrahydro-1H-benzo[b]azepin-7-ylamino)-pyrimidin-4-ylamino]-N-propyl-benzamide], the IC50 was under 100 nM. On the same count and under the same terms, then `CCCCNC(=O)c1ccccc1Nc1nc(Nc2ccc3c(c2)CCCC(=O)N3C)ncc1Cl` [Example 1030, N-Butyl-2-[5-chloro-2-(1-methyl-2-oxo-2,3,4,5-tetrahydro-1H-benzo[b]azepin-7-ylamino)-pyrimidin-4-ylamino]-benzamide], with under 100 nM; and `CNC(=O)c1cccc(F)c1Nc1nc(Nc2ccc3c(c2)NC(=O)C(N)CC3(C)C)ncc1Cl` (centres unmarked) [Example 1272, 2-[2-(3-Amino-5,5-dimethyl-2-oxo-2,3,4,5-tetrahydro-1H-1-benzazepin-8-ylamino)-5-chloro-pyrimidin-4-ylamino]-3-fluoro-N-methyl-benzamide], with under 100 nM. On the same count and under the same terms, to `CNC(=O)c1cccc(F)c1Nc1nc(Nc2ccc3c(c2)NC(=O)C(NC(=O)CN(C)C)CC3(C)C)ncc1Cl` (centres unmarked) [Example 1285, 2-{5-Chloro-2-[3-(2-dimethylamino-acetylamino)-5,5-dimethyl-2-oxo-2,3,4,5-tetrahydro-1H-1-benzazepin-8-ylamino]-pyrimidin-4-ylamino}-3-fluoro-N-methyl-benzamide] belongs 100 to 1000 nM.

Regarding `CNC(=O)c1cccc(F)c1Nc1nc(Nc2ccc3c(c2)NC(=O)C(NC(C)=O)CC3(C)C)ncc1Cl` (centres unmarked) [Example 1289, 2-[2-(3-Acetylamino-5,5-dimethyl-2-oxo-2,3,4,5-tetrahydro-1H-1-benzazepin-8-ylamino)-5-chloro-pyrimidin-4-ylamino]-3-fluoro-N-methyl-benzamide], the IC50 lay within 100 to 1000 nM. Same read-out and setting: then `CNC(=O)c1cccc(F)c1Nc1nc(Nc2ccc3c(c2)NC(=O)C(NC(=O)COC)CC3(C)C)ncc1Cl` (centres unmarked) [Example 1292, 2-{5-Chloro-2-[3-(2-methoxy-acetylamino)-5,5-dimethyl-2-oxo-2,3,4,5-tetrahydro-1H-1-benzazepin-8-ylamino]-pyrimidin-4-ylamino}-3-fluoro-N-methyl-benzamide], with 100 to 1000 nM; and `CNC(=O)c1cccc(F)c1Nc1nc(Nc2ccc3c(c2)NC(=O)C(NC(=O)N2CCCC2)CC3(C)C)ncc1Cl` (centres unmarked) [Example 1295, Pyrrolidine-1-carboxylic acid {8-[5-chloro-4-(2-fluoro-6-methylcarbamoyl-phenylamino)-pyrimidin-2-ylamino]-5,5-dimethyl-2-oxo-2,3,4,5-tetrahydro-1H-1-benzazepin-3-yl}-amide], with 100 to 1000 nM. On the same count and under the same terms, then `CNC(=O)c1cccc(F)c1Nc1nc(Nc2ccc3c(c2)NC(=O)C(NC(=O)OC)CC3(C)C)ncc1Cl` (centres unmarked) [Example 1299, {8-[5-Chloro-4-(2-fluoro-6-methylcarbamoyl-phenylamino)-pyrimidin-2-ylamino]-5,5-dimethyl-2-oxo-2,3,4,5-tetrahydro-1H-1-benzazepin-3-yl}-carbamic acid methyl ester], with 100 to 1000 nM; and `CNC(=O)c1cccc(F)c1Nc1nc(Nc2ccc3c(c2)NC(=O)CCC3)ncc1Cl` [Example 1375, 2-[5-Chloro-2-(2-oxo-2,3,4,5-tetrahydro-1H-benzo[b]azepin-8-ylamino)-pyrimidin-4-ylamino]-3-fluoro-N-methyl-benzamide], with 100 to 1000 nM. Regarding `C#CCNC(=O)c1ccccc1Nc1nc(Nc2ccc3c(c2)CCCC(=O)N3C)ncc1Cl` [Example 1388, 2-[5-Chloro-2-(1-methyl-2-oxo-2,3,4,5-tetrahydro-1H-benzo[b]azepin-7-ylamino)-pyrimidin-4-ylamino]-N-prop-2-ynyl-benzamide], the IC50 was under 100 nM. Still for that read-out and setting: to `C#CCN(C)C(=O)c1ccccc1Nc1nc(Nc2ccc3c(c2)CCCC(=O)N3C)ncc1Cl` [Example 1390, [5-Chloro-2-(1-methyl-2-oxo-2,3,4,5-tetrahydro-1H-benzo[b]azepin-7-ylamino)-pyrimidin-4-ylamino]-N-methyl-N-prop-2-ynyl-benzamide] belongs under 100 nM; to `CCOC(=O)N1CCCOc2ccc(Nc3ncc(Cl)c(Nc4c(F)cccc4C(=O)NC)n3)cc21` [Example 1410, 2-[5-Chloro-4-(2-fluoro-6-methylcarbamoyl-phenylamino)-pyrimidin-2-ylamino]-7,8-dihydro-6H-5-oxa-9-aza-benzocycloheptene-9-carboxylic acid ethyl ester], 100 to 1000 nM. On the same count and under the same terms, to `CCOC(=O)N1CCCOc2cc(Nc3ncc(Cl)c(Nc4c(F)cccc4C(=O)NC)n3)ccc21` [Example 1417, 3-[5-Chloro-4-(2-fluoro-6-methylcarbamoyl-phenylamino)-pyrimidin-2-ylamino]-7,8-dihydro-6H-5-oxa-9-aza-benzocycloheptene-9-carboxylic acid ethyl ester] belongs 100 to 1000 nM. On the same count and under the same terms, to `CNC(=O)c1cccc(F)c1Nc1nc(Nc2ccc3c(c2)OCCCN3C(=O)OCCCN(C)C)ncc1Cl` [Example 1426, 3-[5-Chloro-4-(2-fluoro-6-methylcarbamoyl-phenylamino)-pyrimidin-2-ylamino]-7,8-dihydro-6H-5-oxa-9-aza-benzocycloheptene-9-carboxylic acid 3-dimethylamino-propyl ester] belongs 100 to 1000 nM; to `CNC(=O)c1cccc(F)c1Nc1nc(Nc2ccc3c(c2)OCCCN3C(=O)OC)ncc1Cl` [Example 1431, 3-[5-Chloro-4-(2-fluoro-6-methylcarbamoyl-phenylamino)-pyrimidin-2-ylamino]-7,8-dihydro-6H-5-oxa-9-aza-benzocycloheptene-9-carboxylic acid methyl ester], 100 to 1000 nM; to `CNC(=O)c1cccc(F)c1Nc1nc(Nc2ccc3c(c2)OCCCN3C(=O)OC(C)C)ncc1Cl` [Example 1432, 3-[5-Chloro-4-(2-fluoro-6-methylcarbamoyl-phenylamino)-pyrimidin-2-ylamino]-7,8-dihydro-6H-5-oxa-9-aza-benzocycloheptene-9-carboxylic acid isopropyl ester], 100 to 1000 nM.

The same assay, now with this note: ALK kinase inhibition, 1 μM ATP (Km level); read-out: ALK Activity.
In the case of `CN1C(=O)CCCc2cc(Nc3ncc(Cl)c(Nc4ccccc4C(N)=O)n3)ccc21` [Example 7, 2-[5-Chloro-2-(1-methyl-2-oxo-2,3,4,5-tetrahydro-1H-benzo[b]azepin-7-ylamino)-pyrimidin-4-ylamino]-benzamide], the IC50 was under 100 nM. Same read-out and setting: to `CNC(=O)c1ccccc1Nc1nc(Nc2ccc3c(c2)CCN(CCOC)CC3)ncc1Cl` [Example 34, 2-{5-Chloro-2-[3-(2-methoxy-ethyl)-2,3,4,5-tetrahydro-1H-benzo[d]azepin-7-ylamino]-pyrimidin-4-ylamino}-N-methyl-benzamide] belongs under 100 nM.

`CNC(=O)c1cccc(F)c1Nc1nc(Nc2ccc3c(c2)CCN(CCOC)CC3)ncc1Cl` [Example 311, 2-{5-Chloro-2-[3-(2-methoxy-ethyl)-2,3,4,5-tetrahydro-1H-benzo[d]azepin-7-ylamino]-pyrimidine-4-ylamino}-3-fluoro-N-methyl-benzamide]: the IC50 was under 100 nM. Still for that read-out and setting: then `CNC(=O)c1cccc(Cl)c1Nc1nc(Nc2ccc3c(c2)CCN(CCOC)CC3)ncc1Cl` [Example 312, 3-Chloro-2-{5-chloro-2-[3-(2-methoxy-ethyl)-2,3,4,5-tetrahydro-1H-benzo[d]azepin-7-ylamino]-pyrimidine-4-ylamino}-N-methyl-benzamide], with 100 to 1000 nM; and `CNC(=O)c1cccc(C)c1Nc1nc(Nc2ccc3c(c2)CCN(CCOC)CC3)ncc1Cl` [Example 313, 2-{5-Chloro-2-[3-(2-methoxy-ethyl)-2,3,4,5-tetrahydro-1H-benzo[d]azepin-7-ylamino]-pyrimidin-4-ylamino}-3,N-dimethyl-benzamide], with 100 to 1000 nM. In the case of `CNC(=O)c1cccc(F)c1Nc1nc(Nc2ccc3c(c2)N(CCOC)C(=O)CCC3)ncc1Cl` [Example 362, 2-{5-Chloro-2-[1-(2-methoxy-ethyl)-2-oxo-2,3,4,5-tetrahydro-1H-benzo[b]azepin-8-ylamino]-pyrimidin-4-ylamino}-3-fluoro-N-methyl-benzamide], the IC50 was under 100 nM. Consider `CNC(=O)c1ccccc1Nc1nc(Nc2ccc3c(c2)C(C)(C)CCC(=O)N3)ncc1Cl` [Example 381, 2-[5-Chloro-2-(5,5-dimethyl-2-oxo-2,3,4,5-tetrahydro-1H-benzo[b]azepin-7-ylamino)-pyrimidin-4-ylamino]-N-methyl-benzamide], for which the IC50 was under 100 nM. The same measure, in the same setting: then `CNC(=O)c1cccc(Cl)c1Nc1nc(Nc2ccc3c(c2)C(C)(C)CCC(=O)N3)ncc1Cl` [Example 382, 3-Chloro-2-[5-chloro-2-(5,5-dimethyl-2-oxo-2,3,4,5-tetrahydro-1H-benzo[b]azepin-7-ylamino)-pyrimidin-4-ylamino]-N-methyl-benzamide], with 100 to 1000 nM.

`CNC(=O)c1cccc(F)c1Nc1nc(Nc2ccc3c(c2)C(C)(C)CCC(=O)N3)ncc1Cl` [Example 396, 2-[5-Chloro-2-(5,5-dimethyl-2-oxo-2,3,4,5-tetrahydro-1H-benzo[b]azepin-7-ylamino)-pyrimidin-4-ylamino]-3-fluoro-N-methyl-benzamide]: the IC50 is under 100 nM. The same measure, in the same setting: to `CNC(=O)c1cccc(C)c1Nc1nc(Nc2ccc3c(c2)C(C)(C)CCC(=O)N3)ncc1Cl` [Example 399, 2-[5-Chloro-2-(5,5-dimethyl-2-oxo-2,3,4,5-tetrahydro-1H-benzo[b]azepin-7-ylamino)-pyrimidin-4-ylamino]-3,N-dimethyl-benzamide] belongs 100 to 1000 nM.
